{"source": "patent US20020035061A1", "about": "“COMPOSITIONS AND METHODS FOR TREATING INFECTIONS USING CATIONIC PEPTIDES ALONE OR IN COMBINATION WITH ANTIBIOTICS” (priority 1996, published 2002)", "type_in_all_cases": "cell-based", "key": {"[1]": {"test_system": "E. coli", "details": "for Peptide MIC values: agarose dilution"}, "[2]": {"test_system": "E. faecalis", "details": "E. faecalis strain EFS002"}, "[3]": {"test_system": "E. faecium"}, "[4]": {"test_system": "H. influenzae", "test": "Agarose dilution assay (MIC)", "details": "H. influenzae strain HIN002"}, "[5]": {"test_system": "P. aeruginosa", "details": "for Peptide MIC values: agarose dilution"}, "[6]": {"test_system": "P. vulgaris", "test": "Agarose dilution assay (MIC)", "details": "agarose dilution; P. vulgaris ATCC 13315"}, "[7]": {"test_system": "S. aureus", "details": "for Peptide MIC values: agarose dilution"}, "[8]": {"test_system": "S. marcescens", "details": "for Peptide MIC values: agarose dilution"}, "[9]": {"test_system": "S. pneumoniae", "test": "Agarose dilution assay (MIC)", "details": "for Peptide MIC values: agarose dilution"}, "[10]": {"test_system": "bacterial isolates", "test": "microbe, parasite or virus in culture"}, "[11]": {"test_system": "inherently resistant microorganisms", "test": "microbe, parasite or virus in culture", "details": "S. aureus"}, "[12]": {"test_system": "microorganisms with acquired resistance", "test": "microbe, parasite or virus in culture", "details": "for Peptide MIC Alone: Tobramycin section; for FIC: peptide + Tobramycin"}, "[13]": {"details": "S. aureus SA025 (also SA025 MRSA)"}}, "note": "Like-named read-outs stand apart in the source and are kept apart here.", "data": [{"sequence": "ILKKWPWWPWK [MBI 11G13CN]", "values": [{"measurement": "MIC", "setting": "[1]; E. coli strain ECO002", "value": 32, "unit": "µg/mL"}, {"measurement": "MIC", "setting": "[1]; E. coli strain SBECO3", "value": 32, "unit": "µg/mL"}, {"measurement": "Peptide MIC values", "setting": "[1]; E. coli ATCC 25922", "value": 64, "unit": "µg/mL"}, {"measurement": "Peptide MIC values", "setting": "[1]; E. coli ESS", "value": 32, "unit": "µg/mL"}, {"measurement": "Peptide MIC values", "setting": "[1]; E. coli NCTC 10418", "value": 16, "unit": "µg/mL"}, {"measurement": "MIC", "setting": "[2]", "value": 64, "unit": "µg/mL"}, {"measurement": "MIC", "setting": "[3]; E. faecium strain EFM002", "value": 16, "unit": "µg/mL"}, {"measurement": "Peptide MIC values", "setting": "[3]; agarose dilution", "value": 32, "unit": "µg/mL"}, {"measurement": "MIC", "setting": "[4]", "value": ">128", "unit": "µg/mL"}, {"measurement": "MIC", "setting": "[5]; P. aeruginosa strain PA004", "value": ">128", "unit": "µg/mL"}, {"measurement": "Peptide MIC values", "setting": "[5]; P. aeruginosa ATCC 27853", "value": ">128", "unit": "µg/mL"}, {"measurement": "Peptide MIC values", "setting": "[5]; P. aeruginosa NCTC 10662", "value": ">128", "unit": "µg/mL"}, {"measurement": "Peptide MIC values", "setting": "[6]", "value": ">128", "unit": "µg/mL"}, {"measurement": "MIC", "setting": "[7]; S. aureus strain SA004", "value": 4, "unit": "µg/mL"}, {"measurement": "Peptide MIC values", "setting": "[7]; S. aureus ATCC 29213", "value": 1, "unit": "µg/mL"}, {"measurement": "Peptide MIC values", "setting": "[7]; S. aureus MRSA9", "value": 8, "unit": "µg/mL"}, {"measurement": "Peptide MIC values", "setting": "[7]; S. aureus MRSA13", "value": 64, "unit": "µg/mL"}, {"measurement": "Peptide MIC values", "setting": "[7]; S. aureus MRSA17", "value": 16, "unit": "µg/mL"}, {"measurement": "Peptide MIC values", "setting": "[7]; S. aureus SA206", "value": 32, "unit": "µg/mL"}, {"measurement": "MIC", "setting": "[8]; S. marcescens strain SBSM1", "value": ">128", "unit": "µg/mL"}, {"measurement": "Peptide MIC values", "setting": "[8]; S. marcescens SM76", "value": ">128", "unit": "µg/mL"}, {"measurement": "Peptide MIC values", "setting": "[8]; S. marcescens SM82", "value": ">128", "unit": "µg/mL"}, {"measurement": "MIC", "setting": "[9]; S. pneumoniae strain SBSPN3", "value": 128, "unit": "µg/mL"}, {"measurement": "Peptide MIC values", "setting": "[9]; S. pneumoniae 406LE8", "value": 128, "unit": "µg/mL"}, {"measurement": "Peptide MIC values", "setting": "[9]; S. pneumoniae 60120", "value": ">128", "unit": "µg/mL"}, {"measurement": "Peptide MIC values", "setting": "[9]; S. pneumoniae ATCC 49619", "value": 128, "unit": "µg/mL"}, {"measurement": "Peptide MIC + Tobramycin", "setting": "[10]; A. baumannii ABI001", "value": 32, "unit": "µg/mL"}, {"measurement": "Tobramycin MIC + Peptide", "setting": "[10]; A. baumannii ABI001", "value": 4, "unit": "µg/mL"}, {"measurement": "Peptide MIC Alone", "setting": "[10]; A. baumannii ABI001, Tobramycin section", "value": 128, "unit": "µg/mL"}, {"measurement": "Mupirocin MIC + Peptide", "setting": "[10]; E. coli ECO5", "value": 30, "unit": "µg/mL"}, {"measurement": "Peptide MIC + Mupirocin", "setting": "[10]; E. coli ECO5", "value": 8, "unit": "µg/mL"}, {"measurement": "Peptide MIC Alone", "setting": "[10]; E. coli ECO5, Mupirocin section", "value": 64, "unit": "µg/mL"}, {"measurement": "Mupirocin MIC + Peptide", "setting": "[10]; E. coli SBECO2", "value": 30, "unit": "µg/mL"}, {"measurement": "Peptide MIC + Mupirocin", "setting": "[10]; E. coli SBECO2", "value": 8, "unit": "µg/mL"}, {"measurement": "Peptide MIC Alone", "setting": "[10]; E. coli SBECO2, Mupirocin section", "value": 64, "unit": "µg/mL"}, {"measurement": "Peptide MIC + Tobramycin", "setting": "[10]; P. aeruginosa PA022", "value": 16, "unit": "µg/mL"}, {"measurement": "Tobramycin MIC + Peptide", "setting": "[10]; P. aeruginosa PA022", "value": 4, "unit": "µg/mL"}, {"measurement": "Peptide MIC Alone", "setting": "[10]; P. aeruginosa PA022, Tobramycin section", "value": ">128", "unit": "µg/mL"}, {"measurement": "Peptide MIC + Tobramycin", "setting": "[10]; [13]", "value": 2, "unit": "µg/mL"}, {"measurement": "Tobramycin MIC + Peptide", "setting": "[10]; [13]", "value": 0.125, "unit": "µg/mL"}, {"measurement": "Peptide MIC Alone", "setting": "[10]; S. aureus SA025 (also SA025 MRSA), Tobramycin section", "value": 4, "unit": "µg/mL"}, {"measurement": "Peptide MIC + Tobramycin", "setting": "[10]; S. maltophilia SMA029", "value": 0.125, "unit": "µg/mL"}, {"measurement": "Tobramycin MIC + Peptide", "setting": "[10]; S. maltophilia SMA029", "value": 64, "unit": "µg/mL"}, {"measurement": "Peptide MIC Alone", "setting": "[10]; S. maltophilia SMA029, Tobramycin section", "value": ">128", "unit": "µg/mL"}, {"measurement": "Peptide MIC + Tobramycin", "setting": "[10]; S. maltophilia SMA030", "value": 0.125, "unit": "µg/mL"}, {"measurement": "Tobramycin MIC + Peptide", "setting": "[10]; S. maltophilia SMA030", "value": 64, "unit": "µg/mL"}, {"measurement": "Peptide MIC Alone", "setting": "[10]; S. maltophilia SMA030, Tobramycin section", "value": ">128", "unit": "µg/mL"}, {"measurement": "FIC", "setting": "[10]; peptide + Mupirocin, E. coli ECO5", "value": 0.43}, {"measurement": "FIC", "setting": "[10]; peptide + Mupirocin, E. coli SBECO2", "value": 0.16}, {"measurement": "FIC", "setting": "[10]; peptide + Tobramycin, A. baumannii ABI001", "value": 0.50}, {"measurement": "FIC", "setting": "[10]; peptide + Tobramycin, P. aeruginosa PA022", "value": 0.56}, {"measurement": "FIC", "setting": "[10]; peptide + Tobramycin, S. aureus SA025 (also SA025 MRSA)", "value": 0.50}, {"measurement": "FIC", "setting": "[10]; peptide + Tobramycin, S. maltophilia SMA029", "value": 0.50}, {"measurement": "FIC", "setting": "[10]; peptide + Tobramycin, S. maltophilia SMA030", "value": 0.50}, {"measurement": "Peptide MIC + Tobramycin", "setting": "[11]", "value": 2, "unit": "µg/mL"}, {"measurement": "Peptide MIC Alone", "setting": "[11]; Tobramycin section", "value": 4, "unit": "µg/mL"}, {"measurement": "FIC", "setting": "[11]; peptide + Tobramycin", "value": 0.50}, {"measurement": "Peptide MIC + Tobramycin", "setting": "[12]; A. baumannii ABI001", "value": 32, "unit": "µg/mL"}, {"measurement": "Tobramycin MIC + Peptide", "setting": "[12]; A. baumannii ABI001", "value": 4, "unit": "µg/mL"}, {"measurement": "Peptide MIC Alone", "setting": "[12]; A. baumannii ABI001", "value": 128, "unit": "µg/mL"}, {"measurement": "Peptide MIC", "setting": "[12]; E. faecium, combination with Mupirocin, in µg/mL", "value": 32}, {"measurement": "Peptide MIC + Tobramycin", "setting": "[12]; P. aeruginosa PA022", "value": 16, "unit": "µg/mL"}, {"measurement": "Tobramycin MIC + Peptide", "setting": "[12]; P. aeruginosa PA022", "value": 4, "unit": "µg/mL"}, {"measurement": "Peptide MIC Alone", "setting": "[12]; P. aeruginosa PA022", "value": ">128", "unit": "µg/mL"}, {"measurement": "FIC", "setting": "[12]; A. baumannii ABI001", "value": 0.50}, {"measurement": "FIC", "setting": "[12]; P. aeruginosa PA022", "value": 0.56}]}]}
